According to ChEMBL document CHEMBL1143738, “Inhibition of S. aureus alpha-hemolysin and B. anthracis lethal toxin by beta-cyclodextrin derivatives” (Bioorg Med Chem, 2007):
Calls of active or inactive are those of the source. No cut-off for these calls is given here.

How the values were obtained:
[1] = Toxicity against mouse RAW264.7 cells; format: cell-based
RAW264.7 [2] = experiment: Inhibition of Bacillus anthracis lethal toxin-induced cytotoxicity in mouse RAW264.7 cells; format: functional, cell-based
Erythrocyte [3] = experiment: Inhibition of Staphylococcus aureus alpha-hemolysin-induced cytotoxicity against rabbit RBC; format: functional, cell-based; details: Oryctolagus cuniculus
RAW264.7 [4] = experiment: Toxicity against mouse RAW264.7 cells upto 100 uM; format: cell-based
RAW264.7 [5] = experiment: Protection against Bacillus anthracis lethal toxin-induced cell death in mouse RAW264.7cells assessed as cell viability in MTS colorimetric assay; format: functional, cell-based
[6] = target: Protective antigen (Bacillus anthracis) (UniProt P13423); experiment: Inhibition of Bacillus anthracis protective antigen 63 reconstituted in diphytanoylphosphatidylcholine lipid membranes assessed as inhibition of channel conductance at 5 uM
Sequence of Protective antigen (Bacillus anthracis) (P13423 whole entry): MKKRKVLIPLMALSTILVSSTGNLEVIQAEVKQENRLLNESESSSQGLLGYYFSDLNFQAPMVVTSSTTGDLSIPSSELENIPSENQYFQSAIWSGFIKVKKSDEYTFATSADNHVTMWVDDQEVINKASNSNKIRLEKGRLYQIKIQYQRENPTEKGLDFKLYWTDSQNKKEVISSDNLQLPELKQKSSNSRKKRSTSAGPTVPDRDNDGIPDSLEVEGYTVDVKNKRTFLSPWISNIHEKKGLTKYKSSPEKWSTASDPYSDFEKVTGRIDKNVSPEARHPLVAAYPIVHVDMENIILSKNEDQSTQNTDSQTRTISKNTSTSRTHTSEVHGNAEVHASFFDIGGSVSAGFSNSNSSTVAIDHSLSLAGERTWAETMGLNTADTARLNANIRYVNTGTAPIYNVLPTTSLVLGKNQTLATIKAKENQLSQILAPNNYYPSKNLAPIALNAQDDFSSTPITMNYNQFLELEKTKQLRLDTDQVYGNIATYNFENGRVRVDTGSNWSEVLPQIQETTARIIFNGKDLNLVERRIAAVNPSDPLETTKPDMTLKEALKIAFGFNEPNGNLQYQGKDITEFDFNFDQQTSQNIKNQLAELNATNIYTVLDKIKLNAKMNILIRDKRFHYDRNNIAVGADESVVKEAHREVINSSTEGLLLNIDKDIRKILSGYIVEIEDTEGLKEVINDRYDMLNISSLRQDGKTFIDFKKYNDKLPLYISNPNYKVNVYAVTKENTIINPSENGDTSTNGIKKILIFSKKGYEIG

[7] = target: T1, Alpha-hemolysin (Staphylococcus aureus) (UniProt P09616); experiment: Inhibition of Staphylococcus aureus alpha-hemolysin reconstituted in diphytanoylphosphatidylcholine lipid membranes assessed as inhibition of channel conductance at 2 uM
T1 sequence (whole entry): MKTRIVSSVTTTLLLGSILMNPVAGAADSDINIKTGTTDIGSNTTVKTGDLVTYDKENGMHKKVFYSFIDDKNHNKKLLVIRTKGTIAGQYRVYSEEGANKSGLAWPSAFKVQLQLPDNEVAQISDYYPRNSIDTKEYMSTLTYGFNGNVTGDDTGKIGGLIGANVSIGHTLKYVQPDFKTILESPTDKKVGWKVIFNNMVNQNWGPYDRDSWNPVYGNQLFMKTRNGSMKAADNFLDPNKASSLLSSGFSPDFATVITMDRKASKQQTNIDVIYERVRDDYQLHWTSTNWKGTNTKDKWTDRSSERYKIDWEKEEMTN

Erythrocyte [8] = experiment: Protection against Staphylococcus aureus alpha-hemolysin-induced cell death in rabbit RBC assessed as cell viability in MTS colorimetric assay; format: functional, cell-based; details: Oryctolagus cuniculus

**Q.** For N[C@@H](COCc1ccccc1)CC(=O)NC[C@H]1O[C@@H]2O[C@H]3[C@H](O)[C@@H](O)[C@@H](O[C@H]4[C@H](O)[C@@H](O)[C@@H](O[C@H]5[C@H](O)[C@@H](O)[C@@H](O[C@H]6[C@H](O)[C@@H](O)[C@@H](O[C@H]7[C@H](O)[C@@H](O)[C@@H](O[C@H]8[C@H](O)[C@@H](O)[C@@H](O[C@H]1[C@H](O)[C@H]2O)O[C@@H]8CNC(O)[C@@H](N)COCc1ccccc1)O[C@@H]7CNC(=O)[C@@H](N)COCc1ccccc1)O[C@@H]6CNC(=O)[C@@H](N)COCc1ccccc1)O[C@@H]5CNC(=O)[C@@H](N)COCc1ccccc1)O[C@@H]4CNC(=O)[C@@H](N)COCc1ccccc1)O[C@@H]3CNC(=O)[C@@H](N)COCc1ccccc1.O=C(O)C(F)(F)F.O=C(O)C(F)(F)F.O=C(O)C(F)(F)F.O=C(O)C(F)(F)F.O=C(O)C(F)(F)F.O=C(O)C(F)(F)F.O=C(O)C(F)(F)F (stereo partly drawn), which IC50 [1] is on record?
**A.** 0.6 µM

**Q.** And the IC50 (RAW264.7 [2])?
**A.** > 25 µM

**Q.** What about the IC50 (Erythrocyte [3]) of the same compound?
**A.** 6.1 µM

**Q.** What about the Activity (RAW264.7 [4]) of the same compound?
**A.** Non-toxic

**Q.** Which results are given for CC(C)(C)OC(=O)N[C@@H](CCCN)CC(=O)NC[C@H]1O[C@@H]2O[C@H]3[C@H](O)[C@@H](O)[C@@H](O[C@H]4[C@H](O)[C@@H](O)[C@@H](O[C@H]5[C@H](O)[C@@H](O)[C@@H](O[C@H]6[C@H](O)[C@@H](O)[C@@H](O[C@H]7[C@H](O)[C@@H](O)[C@@H](O[C@H]8[C@H](O)[C@@H](O)[C@@H](O[C@H]1[C@H](O)[C@H]2O)O[C@@H]8CNC(O)[C@H](CCCN)NC(=O)OC(C)(C)C)O[C@@H]7CNC(=O)[C@H](CCCN)NC(=O)OC(C)(C)C)O[C@@H]6CNC(=O)[C@H](CCCN)NC(=O)OC(C)(C)C)O[C@@H]5CNC(=O)[C@H](CCCN)NC(=O)OC(C)(C)C)O[C@@H]4CNC(=O)[C@H](CCCN)NC(=O)OC(C)(C)C)O[C@@H]3CNC(=O)[C@H](CCCN)NC(=O)OC(C)(C)C.Cl.Cl.Cl.Cl.Cl.Cl (stereo partly drawn)?
**A.** IC50 [1]: 0.6 µM; Activity (RAW264.7 [5]): Active; IC50 (RAW264.7 [2]): 3.5 µM; IC50 (Erythrocyte [3]): 5.6 µM; Activity (RAW264.7 [4]): Non-toxic; Activity [6]: Active; Activity [7]: Active; Activity (Erythrocyte [8]): Active

**Q.** For N[C@@H](CSCc1ccccc1)CC(=O)NC[C@H]1O[C@@H]2O[C@H]3[C@H](O)[C@@H](O)[C@@H](O[C@H]4[C@H](O)[C@@H](O)[C@@H](O[C@H]5[C@H](O)[C@@H](O)[C@@H](O[C@H]6[C@H](O)[C@@H](O)[C@@H](O[C@H]7[C@H](O)[C@@H](O)[C@@H](O[C@H]8[C@H](O)[C@@H](O)[C@@H](O[C@H]1[C@H](O)[C@H]2O)O[C@@H]8CNC(O)[C@@H](N)CSCc1ccccc1)O[C@@H]7CNC(=O)[C@@H](N)CSCc1ccccc1)O[C@@H]6CNC(=O)[C@@H](N)CSCc1ccccc1)O[C@@H]5CNC(=O)[C@@H](N)CSCc1ccccc1)O[C@@H]4CNC(=O)[C@@H](N)CSCc1ccccc1)O[C@@H]3CNC(=O)[C@@H](N)CSCc1ccccc1.O=C(O)C(F)(F)F.O=C(O)C(F)(F)F.O=C(O)C(F)(F)F.O=C(O)C(F)(F)F.O=C(O)C(F)(F)F.O=C(O)C(F)(F)F.O=C(O)C(F)(F)F (stereo partly drawn), which IC50 [1] is on record?
**A.** 0.6 µM

**Q.** What about the IC50 (RAW264.7 [2]) of the same compound?
**A.** > 25 µM

**Q.** And the IC50 (Erythrocyte [3])?
**A.** 10.6 µM

**Q.** And the Activity (RAW264.7 [4])?
**A.** Non-toxic

**Q.** With Cl.Cl.Cl.Cl.Cl.Cl.Cl.N[C@@H](CO)CC(=O)NC[C@H]1O[C@@H]2O[C@H]3[C@H](O)[C@@H](O)[C@@H](O[C@H]4[C@H](O)[C@@H](O)[C@@H](O[C@H]5[C@H](O)[C@@H](O)[C@@H](O[C@H]6[C@H](O)[C@@H](O)[C@@H](O[C@H]7[C@H](O)[C@@H](O)[C@@H](O[C@H]8[C@H](O)[C@@H](O)[C@@H](O[C@H]1[C@H](O)[C@H]2O)O[C@@H]8CNC(O)[C@@H](N)CO)O[C@@H]7CNC(=O)[C@@H](N)CO)O[C@@H]6CNC(=O)[C@@H](N)CO)O[C@@H]5CNC(=O)[C@@H](N)CO)O[C@@H]4CNC(=O)[C@@H](N)CO)O[C@@H]3CNC(=O)[C@@H](N)CO (stereo partly drawn) as the compound, how does the IC50 [1] read?
**A.** 0.6 µM

**Q.** And the IC50 (RAW264.7 [2])?
**A.** > 25 µM

**Q.** What about the IC50 (Erythrocyte [3]) of the same compound?
**A.** > 25 µM

**Q.** What about the Activity (RAW264.7 [4]) of the same compound?
**A.** Non-toxic

**Q.** Which IC50 [1] does the source give for Cl.Cl.Cl.Cl.Cl.Cl.Cl.N[C@@H](CS)CC(=O)NC[C@H]1O[C@@H]2O[C@H]3[C@H](O)[C@@H](O)[C@@H](O[C@H]4[C@H](O)[C@@H](O)[C@@H](O[C@H]5[C@H](O)[C@@H](O)[C@@H](O[C@H]6[C@H](O)[C@@H](O)[C@@H](O[C@H]7[C@H](O)[C@@H](O)[C@@H](O[C@H]8[C@H](O)[C@@H](O)[C@@H](O[C@H]1[C@H](O)[C@H]2O)O[C@@H]8CNC(O)[C@@H](N)CS)O[C@@H]7CNC(=O)[C@@H](N)CS)O[C@@H]6CNC(=O)[C@@H](N)CS)O[C@@H]5CNC(=O)[C@@H](N)CS)O[C@@H]4CNC(=O)[C@@H](N)CS)O[C@@H]3CNC(=O)[C@@H](N)CS (stereo partly drawn) here?
**A.** 0.6 µM

**Q.** What about the IC50 (RAW264.7 [2]) of the same compound?
**A.** > 25 µM

**Q.** What about the IC50 (Erythrocyte [3]) of the same compound?
**A.** > 25 µM

**Q.** And the Activity (RAW264.7 [4])?
**A.** Non-toxic

**Q.** For Cl.Cl.Cl.Cl.Cl.Cl.Cl.Cl.Cl.Cl.Cl.Cl.Cl.Cl.NCCC[C@H](N)CC(=O)NC[C@H]1O[C@@H]2O[C@H]3[C@H](O)[C@@H](O)[C@@H](O[C@H]4[C@H](O)[C@@H](O)[C@@H](O[C@H]5[C@H](O)[C@@H](O)[C@@H](O[C@H]6[C@H](O)[C@@H](O)[C@@H](O[C@H]7[C@H](O)[C@@H](O)[C@@H](O[C@H]8[C@H](O)[C@@H](O)[C@@H](O[C@H]1[C@H](O)[C@H]2O)O[C@@H]8CNC(O)[C@@H](N)CCCN)O[C@@H]7CNC(=O)[C@@H](N)CCCN)O[C@@H]6CNC(=O)[C@@H](N)CCCN)O[C@@H]5CNC(=O)[C@@H](N)CCCN)O[C@@H]4CNC(=O)[C@@H](N)CCCN)O[C@@H]3CNC(=O)[C@@H](N)CCCN (stereo partly drawn), which IC50 [1] is on record?
**A.** 0.6 µM

**Q.** And the IC50 (RAW264.7 [2])?
**A.** > 25 µM

**Q.** And the IC50 (Erythrocyte [3])?
**A.** > 25 µM

**Q.** What about the Activity (RAW264.7 [4]) of the same compound?
**A.** Non-toxic
